Results from EP2826473A1, “NOVEL USE OF PATCHOULOL” (Chengdu Huasun Group Inc., Ltd., priority 2012, dated 2013).
In brackets after ≈: the same amount, converted by molar mass. Read-outs that look alike come from different tables or passages of the source.

Tests used:
[1] = system: Streptococcus agalactiae; experiment: in vitro bacteriostatic activity, agar dilution MIC; type: cell-based; settings: Streptococcus agalactiae 12-1
[2] = system: Kurthia gibsonii; experiment: as above; type: cell-based
[3] = system: Chryseobacterium indologenes; experiment: as above; type: cell-based
[4] = system: Enterococcus faecium; experiment: as above; type: cell-based; settings: Enterococcus faecium, read-out: MIC
[5] = system: Klebsiella pneumonia E^-; experiment: as above; type: cell-based
[6] = system: influenza virus A/PR/8/34 (H1N1); settings: in vitro; cited from earlier work
[7] = system: influenza virus type A (H2N2); settings: in vitro; cited from earlier work
[8] = system: xylene-induced ear edema; settings: mice, dose-dependent; cited from earlier work
[9] = system: carrageenan-induced paw edema; settings: cited from earlier work
[10] = system: influenza virus H2N2; settings: intragastric administration of 5 mg/(kg·d); cited from earlier work
[11] = system: termites; settings: in vivo; cited from earlier work
[12] = mouse, in vivo, po; cited from earlier work
[13] = system: methicillin-resistant Staphylococcus aureus ATCC 43300; experiment: prevention of bacterial infection, colony count on patchoulol-coated tubes; settings: cultured 7 days at 37°C

In the case of `C[C@H]1CC[C@@]2(O)C(C)(C)[C@@H]3CC[C@@]2(C)[C@H]1C3` (stereo in doubt) [PC, (1R,4S,4aS,6R,8aS)-octahydro-4,8a,9,9-tetramethyl-1,6-methanonaphthalen-1(2H)-ol], the MIC [1] is reported as 50 µg/mL (≈ 225 µM), the MIC ([2]; Kurthia gibsonii 12-1, read-out: MIC) is reported as 50 µg/mL (≈ 225 µM) and the MIC ([2]; Kurthia gibsonii 12-2) is reported as 50 µg/mL (≈ 225 µM). For the same compound, the MIC ([3]; Chryseobacterium indologenes12- (first line, r25)) was 25 µg/mL (≈ 112 µM), the MIC ([3]; Chryseobacterium indologenes12- (second line, r26)) was 100 µg/mL (≈ 450 µM) and the MIC ([4]; ATCC33186, Enterococcus faecium ATCC 33186) was 128 µg/mL (≈ 576 µM). It also gave an MIC ([4]; Enterococcus faecium 12-7) of 64 µg/mL (≈ 288 µM), an MIC ([4]; Enterococcus faecium 12-8) of 64 µg/mL (≈ 288 µM) and an MIC ([4]; Enterococcus faecium 12-9) of 64 µg/mL (≈ 288 µM). It also gave an MIC ([4]; Enterococcus faecium 12-10) of 32 µg/mL (≈ 144 µM), an MIC ([4]; Enterococcus faecium 12-11) of 32 µg/mL (≈ 144 µM) and an MIC ([4]; Enterococcus faecium 12-12) of 64 µg/mL (≈ 288 µM). The MIC ([4]; Enterococcus faecium 12-13) was 64 µg/mL (≈ 288 µM), the MIC ([4]; Enterococcus faecium 12-14) was 64 µg/mL (≈ 288 µM) and the MIC ([4]; Enterococcus faecium 12-15) was 32 µg/mL (≈ 144 µM). It also gave an MIC ([4]; Enterococcus faecium 12-16) of 32 µg/mL (≈ 144 µM), an MIC ([5]; Klebsiella pneumonia E^- 10-18) greater than 768 µg/mL and an MIC ([5]; Klebsiella pneumoniae, Klebsiella pneumonia E^- 10-16, read-out: MIC) greater than 768 µg/mL. For the same compound, the IC50 [6] was roughly 2.64 µM, the IC50 [7] was 4.03 ± 0.23 µM and the xylene-induced ear edema [8] was “effectively inhibit”. The “content of NO, PGE-2, TNF-α in the hind paw” value ([9]; inflammatory rats, high dosage) was “significantly reduce”, the carrageenan-induced paw edema ([9]; rats, dose-dependent) was “effectively inhibit” and the “protective effect on infected model mice” value [10] was “obvious protective effect”. The effect on termites [11] was “obviously toxic and removal effect”, the maximum tolerated dose [12] was “less than 12.5 g/kg” and the bacterial colony numbers ([13]; 400, 200, 100 and 50 µg/ml, compared with 0 µg/ml) was “decrease”. For the same compound, the bacterial colony numbers ([13]; patchoulol on intraductal membranes more than or equal to 600 µg/ml) was 0.
